{"source": "patent US20050272677A1", "about": "“Delivery of a substance to a pre-determined site” (priority 2002, published 2005)", "key": {"[1]": {"target": "T1, MscL (Escherichia coli, UniProt P0A742)", "T1 construct": "made in house; host or cells: E. coli PB104", "assay": "Release from heparin sulfate loaded liposomes with an applied electric field", "details": "liposome with calcein, negative potential", "experimental": "In vitro release profiles of a model drug were determined. Liposomes, as in Example 1, with and without MscL-6His, were prepared in the presence of the dye, calcein and heparin sulfate, a natural polymer found in secretory granules. A liposome was inserted into the tip of a glass pipette with the application of suction. The pipette voltage relative to the bath was controlled by a current-to-voltage converter. The solution in both the bath and the pipette was buffered to 6.5 with histamine dichloride and phosphoric acid. An Axopatch 200B was used to apply voltages and to sample the currents at 2.5 ms intervals. Swelling was induced by the application of a negative potential. To measure the swelling, the isolated liposomes were imaged and analyzed as described (J. M. Fernandez, et al., 1991, Biophys. J. 59:1022-1027, and J. R. Monck, et al., 1991; Biophys. J. 59:39-47)."}, "[2]": {"tested_on": "neurospheres (neural stem cells)", "assay": "Ex vivo transfection of neurospheres with pEGFP-N1 lipoplexes", "type": "cell-based, mice", "details": "4 hours incubation, read after two days", "experimental": "Neural stem cells were isolated from the forebrain of mice embryos and cultured in the presence of epidermal growth factor (EGF) and fibroblast growth factor (FGF). In the presence of these growth factors, neural stem cells form neurospheres, clusters of cells that grow in suspension.\nPrior to transfection of neurospheres, the spheres were immobilized on Labtek culture plates that were coated with poly-ornithine. Subsequently, neurospheres were incubated for 4 hours with SF-6/DOPE (1:1 molar ratio), SF-63, SF-80/DOPE (1:1 molar ratio), or Lipofectamine 2000 lipoplexes, containing plasmid DNA encoding Enhanced Green Fluorescent Protein (pEGFP-N1). After two days, the transfection efficiency was determined with fluorescence microscopy."}, "[3]": {"assay": "In vivo delivery of luciferase DNA complexed with Sunfish amphiphiles", "design": "species or system mouse", "details": "24 hours; efficiency order SF-46>SF-36>SF-6>SF-30>SF-63", "experimental": "Sunfish (SF) amphiphiles were tested and compared to DOTAP, a commercially available amphiphile (Avanti Polar Lipids). The used plasmid DNA codes for Luciferase, which is expressed upon transfection. Luciferase activity represents the efficiency of transfection. Liposomes were prepared by drying the Sunfish amphiphiles or DOTAP in glass tubes under a nitrogen flow followed by being under vacuum for one hour. The lipid film was resuspended in 20% sucrose by mixing and warming up for five minutes to 60° C. in a water bath. The liposomal suspension was then sonicated for three minutes. For lipoplexes formation, plasmid DNA (30 μg/mouse) diluted in 20% sucrose was added to the liposomes (450 nmol/mouse) under mixing. The lipoplexes were allowed to rest at room temperature for […] and were intravenously injected (150 μl) in male BALB/c mice. Organs (lungs, heart, liver, spleen and kidneys) were collected 24 hours after injection for analysis. Luciferase activity was measured in homogenates of the different organs and related to a standard curve obtained with purified recombinant Luciferase."}, "[4]": {"tested_on": "pB104 strain (MscL null E. coli)", "assay": "MTSET shock assay on agar plates with IPTG", "type": "cell-based", "design": "Growth −MTSET-shock: key to the marks not given beside the values", "experimental": "The constructs of the G20C^Ll, V21C^Ll and G22C^Ec MscL-6His mutants were constructed using standard molecular biology techniques. The mutants were tested in pB104 strain (MscL null E. coli) by a MTSET shock assay on agar plates with IPTG (A. F. Batiza, et al., 2002, PNAS, 99:5643-5648)."}, "[5]": {"tested_on": "MscL", "details": "pH 6; Yoshimura et al. 1999; cited from earlier work"}, "[6]": {"tested_on": "pB104 strain (MscL null E. coli)", "assay": "Growth assay of MscL mutants on agar plates with or without IPTG", "type": "cell-based", "design": "key: ++++: growth equal to cells expressing wild-type MscL; growth is indicated by ++++ to −; growth is indicated by ++++ to −; growth is indicated by ++++ to −; −: an absence of growth", "details": "pB104 with Lac-inducible plasmid", "experimental": "The constructs of the MscL-6His mutants were constructed using standard molecular biology techniques. The mutants were tested in the pB104 strain (MscL null E. coli) by a growth assay on agar plates with or without IPTG (K. Yoshimura et al., 1999, Biophys. J. 77:1960-1972).\nThe first phenotype (++) grows like the single G22S mutant."}, "[7]": {"target": "T2, MscL (Escherichia coli, UniProt P0A742)", "T2 sequence (P0A742 whole entry, looked up)": "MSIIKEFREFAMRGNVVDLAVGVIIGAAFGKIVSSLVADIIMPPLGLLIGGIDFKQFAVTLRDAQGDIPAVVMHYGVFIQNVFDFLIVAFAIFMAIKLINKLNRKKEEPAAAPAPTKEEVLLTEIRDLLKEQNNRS", "type": "biochemical, E. coli", "experimental": "Results Overexpression and Purification of the MscL Channel Protein\nSamples were prepared and calcein efflux was monitored as described elsewhere in Example 1.\n300 μl of detergent-treated liposomes were gently mixed with 240 μl of 0.25 mg/ml purified MscL-mutant G22C in elution buffer containing 0.2% Triton X-100. The mixture was incubated at 60° C. for 45 minutes, followed by the addition of an equal volume (540 μl) of calcein-loading buffer, containing 200 mM calcein, 25 mM Tris, 1 mM EDTA, pH 8.0. After addition of 20 mg of Triton X-100-absorbing Bio-Beads SM-2, the mixture was gently agitated for one hour at room temperature. Subsequently, 80 mg Bio-Beads were added and incubated at 4° C. overnight under mild agitation. Samples were prepared for calcein efflux assay as described elsewhere."}, "[8]": {"tested_on": "MscL", "details": "spheroplasts", "experimental": "Patch-clamp experiments on spheroplast allow quantitation of the tension sensitivity because of the presence of an internal control, which is the mechanosensitive channel of small conductance (MscS). […] For most clinical applications, it is important that the channel remains closed at pH values of 7.4.\nGiant spheroplasts were prepared as described before and electrophysiological measurements were done by using symmetrical buffers, both in the bath and in the pipette. The gating threshold of MscL (or its mutant) is given as the ratio of the suction required to open MscL to that at which MscS opens.\nGiant spheroplasts were prepared as described in P. Blount, et al., 1999, Methods Enzymol. 294:458-482."}}, "note": "Where two headings read alike, the source gives them in different places."}
{"compound": "heparin sulfate", "values": [{"measurement": "swelling on applied voltage", "setting": "[1]", "result": "swelled instantaneously and predictably with the application of a negative voltage"}]}
{"compound": "CCCCCCCC/C=C\\CCCCCCCCCc1ccc[n+](CCCCCCCC/C=C\\CCCCCCCC)c1.[Cl-]", "note": "[SF-63, 1-(9′-cis-octadecenyl)-3-(10″-cis-nonadecenyl)pyridinium Chloride]", "values": [{"measurement": "transfection efficiency (GFP, fluorescence microscopy)", "setting": "[2]", "result": "constant"}, {"measurement": "gene expression (Luciferase) after intravenous injection of complexed DNA", "setting": "[3]", "result": "resulted in gene expression in the lungs"}]}
{"compound": "WT: wild-type E. coli MscL (6His construct)", "values": [{"measurement": "Growth after +MTSET-shock", "setting": "[4]", "result": "++++"}, {"measurement": "Growth −MTSET-shock", "setting": "[4]", "result": "++++"}, {"measurement": "Gating threshold (ratio of activation pressure to that of MscS)", "setting": "[5]", "result": "1.64 ± 0.08"}, {"measurement": "Growth on agar plates +IPTG", "setting": "[6]; with IPTG", "result": "++++"}, {"measurement": "Growth on agar plates −IPTG", "setting": "[6]; without IPTG", "result": "++++"}, {"measurement": "calcein efflux upon osmotic downshock", "setting": "[7]", "result": "greater efflux of calcein than liposomes without MscL"}, {"measurement": "Gating threshold (ratio of activation pressure to that of MscS)", "setting": "[8]; pH 5.85", "result": "1.53 ± 0.185"}, {"measurement": "Gating threshold (ratio of activation pressure to that of MscS)", "setting": "[8]; pH 7.5", "result": "1.56 ± 0.139"}]}
